Measured values as given in ChEMBL document CHEMBL1201862, “PubChem BioAssay data set” (2004).
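Cells were grown in 96-well plates and exposed to each compound for 48 hours at five concentrations; endpoints were interpolated linearly between bracketing concentrations, or set to the highest concentration if not reached. GI50 = concentration required for 50% inhibition of growth.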 Active and inactive are the calls of the source. No stated cut-off is given here; in the data, active = GI50 up to about 1.1 µM and inactive = higher. Where a SMILES comes first, the peptide text is derived from it. [ ]: non-standard residue; d: D form. The star is where a group is joined. Chg = N[CH](C(=O)O)C1CCCCC1; Cbz = O=C(OCc1ccccc1)*; OBn = c1ccc(CO*)cc1

Columns and labels:
Test in all cases: inhibition of tumour cell growth, NCI panel, 48 h
[1] = system: NCI-H522
[2] = system: IGROV-1
[3] = system: HL-60
[4] = system: Malme-3M
[5] = system: HT-29
[6] = system: CAKI-1
[7] = system: SK-MEL-5
[8] = system: SR
[9] = system: CCRF-CEM
[10] = system: ACHN
[11] = system: OVCAR-4
[12] = system: OVCAR-8
[13] = system: T47D
[14] = system: HOP-62
[15] = system: COLO 205
[16] = system: SK-MEL-2
[17] = system: MOLT-4
[18] = system: SF-295
[19] = system: OVCAR-3
[20] = system: DU-145

| Compound | GI50 [1] | GI50 [2] | GI50 [3] | GI50 [4] | GI50 [5] | GI50 [6] | GI50 [7] | GI50 [8] | GI50 [9] | GI50 [10] | GI50 [11] | GI50 [12] | GI50 [13] | GI50 [14] | GI50 [15] | GI50 [16] | GI50 [17] | GI50 [18] | GI50 [19] | GI50 [20] |
| --- | --- | --- | --- | --- | --- | --- | --- | --- | --- | --- | --- | --- | --- | --- | --- | --- | --- | --- | --- | --- |
| CSC1=Nc2ccccc2-c2nc3ccccc3cc2C1 | 69.2 µM (inactive) | > 100 µM (inactive) | 76 µM (inactive) | > 100 µM (inactive) | > 100 µM (inactive) | > 100 µM (inactive) | > 100 µM (inactive) | 29.9 µM (inactive) | > 100 µM (inactive) | > 100 µM (inactive) | > 100 µM (inactive) | > 100 µM (inactive) | 25.9 µM (inactive) | > 100 µM (inactive) | > 100 µM (inactive) | > 100 µM (inactive) | > 100 µM (inactive) | > 100 µM (inactive) | > 100 µM (inactive) | > 100 µM (inactive) |
| Cc1nc2ccccc2c(=O)n1/N=C/c1ccc(N(C)C)cc1 | 15.6 µM (inactive) | > 100 µM (inactive) | > 100 µM (inactive) | > 100 µM (inactive) | > 100 µM (inactive) | > 100 µM (inactive) | > 100 µM (inactive) | > 100 µM (inactive) | > 100 µM (inactive) | > 100 µM (inactive) | > 100 µM (inactive) | 53.5 µM (inactive) | > 100 µM (inactive) | 34.2 µM (inactive) | > 100 µM (inactive) | > 100 µM (inactive) | > 100 µM (inactive) | 43.6 µM (inactive) | > 100 µM (inactive) | > 100 µM (inactive) |
| C[C@]12CC[C@@H]3c4ccc(OCC(=O)O)cc4CC[C@H]3[C@@H]1CCC2=O | > 100 µM (inactive) | > 100 µM (inactive) | 0.13 µM (active) | > 100 µM (inactive) | > 100 µM (inactive) | > 100 µM (inactive) | > 100 µM (inactive) | > 100 µM (inactive) | 1.32 µM (inactive) | > 100 µM (inactive) | > 100 µM (inactive) | > 100 µM (inactive) | > 100 µM (inactive) | > 100 µM (inactive) | > 100 µM (inactive) | > 100 µM (inactive) | 15.1 µM (inactive) | > 100 µM (inactive) | > 100 µM (inactive) | > 100 µM (inactive) |
| C=C(CN(C)C)C(=O)c1ccccc1OC | 2.04 µM (inactive) | 24.4 µM (inactive) | 3.23 µM (inactive) | 7.66 µM (inactive) | 20.5 µM (inactive) | 9.82 µM (inactive) | 17.1 µM (inactive) | 10.2 µM (inactive) | 2.51 µM (inactive) | 14.5 µM (inactive) | 20.6 µM (inactive) | 21.6 µM (inactive) | 15 µM (inactive) | > 52.8 µM (inactive) | 3.53 µM (inactive) | 14.4 µM (inactive) | 2.46 µM (inactive) | > 56.9 µM (inactive) | 16 µM (inactive) | > 45 µM (inactive) |
| CCOC(=O)C1C(=O)CC(O)(c2ccccc2)C(C(=O)OCC)C1c1ccc(N(C)C)cc1 (stereo not given) | 9.71 µM (inactive) | 31.2 µM (inactive) | 8.18 µM (inactive) | 18.2 µM (inactive) | 15.8 µM (inactive) | 51.2 µM (inactive) | 22.3 µM (inactive) | 7.33 µM (inactive) | 17.3 µM (inactive) | 50.4 µM (inactive) | 59.2 µM (inactive) | 20 µM (inactive) | 27.6 µM (inactive) | 30.8 µM (inactive) | 17.6 µM (inactive) | 33 µM (inactive) | 23.5 µM (inactive) | 5.71 µM (inactive) | 24 µM (inactive) | 57.1 µM (inactive) |
| COc1cc(/C=C2/SC(c3ccccc3)N(c3ccc(Cl)cc3)C2=O)cc(OC)c1OC (stereo not given) | 18.3 µM (inactive) | > 100 µM (inactive) | 10.1 µM (inactive) | 27 µM (inactive) | > 100 µM (inactive) | > 51.2 µM (inactive) | 0.638 µM (active) | 7.6 µM (inactive) | 2.84 µM (inactive) | 4.35 µM (inactive) | 7.98 µM (inactive) | > 100 µM (inactive) | 3.94 µM (inactive) | > 29.4 µM (inactive) | 1.3 µM (inactive) | > 20.6 µM (inactive) | 15.7 µM (inactive) | 3.27 µM (inactive) | 80.5 µM (inactive) | > 100 µM (inactive) |
| Nc1ccc2c(=O)cc(-c3cccs3)[nH]c2n1 | 1.36 µM (inactive) | 2.64 µM (inactive) | 0.234 µM (active) | 8.18 µM (inactive) | 3.66 µM (inactive) | 6.67 µM (inactive) | 1.03 µM (active) | 0.151 µM (active) | 2.21 µM (inactive) | 11.7 µM (inactive) | > 35.7 µM (inactive) | 2.86 µM (inactive) | 3.13 µM (inactive) | 7.31 µM (inactive) | 0.716 µM (active) | 6.32 µM (inactive) | 1.51 µM (inactive) | 3.1 µM (inactive) | 3.32 µM (inactive) | 5.9 µM (inactive) |
| O=[N+]([O-])c1cc(F)ccc1S(=O)(=O)c1ccccc1 | 2.22 µM (inactive) | > 10 µM (inactive) | > 10 µM (inactive) | > 10 µM (inactive) | > 10 µM (inactive) | > 10 µM (inactive) | > 10 µM (inactive) | > 10 µM (inactive) | > 10 µM (inactive) | > 10 µM (inactive) | > 10 µM (inactive) | > 10 µM (inactive) | > 10 µM (inactive) | > 10 µM (inactive) | > 10 µM (inactive) | > 10 µM (inactive) | > 10 µM (inactive) | > 10 µM (inactive) | > 10 µM (inactive) | > 10 µM (inactive) |
| C=C[C@]1(C)CC(O)C2C(=C)C(=O)OC2[C@H]1C(=C)C=O (stereo not given in full) | 0.966 µM (active) | 8.87 µM (inactive) | 0.893 µM (active) | 1.86 µM (inactive) | 2.33 µM (inactive) | 4.35 µM (inactive) | 2.33 µM (inactive) | 1.91 µM (inactive) | 0.925 µM (active) | 2.36 µM (inactive) | 7.93 µM (inactive) | 2.16 µM (inactive) | 3.15 µM (inactive) | 15.5 µM (inactive) | 7.23 µM (inactive) | 3.5 µM (inactive) | 2 µM (inactive) | 10.6 µM (inactive) | 2.67 µM (inactive) | 12.1 µM (inactive) |
| COC(=O)C(NC(=O)C(CC(=O)OCc1ccccc1)NC(=O)OCc1ccccc1)C1CCCCC1 (stereo not given) (Cbz-Asp(OBn)-[Chg]-OMe; configuration not given here) | > 100 µM (inactive) | > 100 µM (inactive) | > 100 µM (inactive) | > 100 µM (inactive) | 78.3 µM (inactive) | > 100 µM (inactive) | 0.195 µM (active) | 59 µM (inactive) | > 100 µM (inactive) | > 100 µM (inactive) | > 100 µM (inactive) | > 100 µM (inactive) | 48 µM (inactive) | > 100 µM (inactive) | > 100 µM (inactive) | 51.9 µM (inactive) | 38.3 µM (inactive) | 67.3 µM (inactive) | > 100 µM (inactive) | > 100 µM (inactive) |
| NC(=O)c1ccc(N)nc1 [6-AMINONICOTINAMIDE] | 99.8 µM (inactive) | 108 µM (inactive) | 53.3 µM (inactive) | 33.2 µM (inactive) | 3.93 µM (inactive) | 17.6 µM (inactive) | 0.759 µM (active) | 14.3 µM (inactive) | 12.3 µM (inactive) | 54.3 µM (inactive) | 7.01 µM (inactive) | 17.6 µM (inactive) | > 255 µM (inactive) | 12 µM (inactive) | 14.2 µM (inactive) | 124 µM (inactive) | 38.6 µM (inactive) | 5.07 µM (inactive) | 67.8 µM (inactive) | 2.3 µM (inactive) |
